# Patent US20110045102A1, “Cancer chemotherapy compositions comprising PI3K pathway modulators and triptolide” (priority 2005, published 2011)
# What was measured:
# [1] = tested on: OCC1-SEAP-12 cells; experiment: DNA laddering on agarose gel (Example III); type: cell-based, human; details: 48 hr and 72 hr
# Method: Following 48 hr to 72 hr treatment incubations, cells were suspended into culture medium and pelleted in tubes. DNA was isolated from collected cells using a Puregene™ DNA isolation kit (Gentra Systems, Minneapolis, Minn.). The quantity and purity of nucleic acid preparations were estimated by measuring the optical density of each sample A260/A280). DNA preparations (10 μg/well) were loaded onto 1.2% agarose gels and visualized with ethidium bromide stain.
# [2] = tested on: OCC1-SEAP cell cultures; experiment: DNA fragmentation (laddering) on agarose gel (Example II); type: cell-based, human; details: 48 hr; TPL 100 ng/ml, carboplatin 50 μg/ml
# Method: Following 48 h to 72 h treatment incubations, cells were suspended into culture medium and pelleted in tubes. DNA was isolated from collected cells using a Puregene™ DNA isolation kit (Gentra Systems, Minneapolis, Minn.). The quantity and purity of nucleic acid preparations were estimated by measuring the absorbance of each sample (A260/A280). DNA preparations (10 μg/well) were loaded onto 1.2% agarose gels and visualized with ethidium bromide stain.
# [3] = tested on: caspase 3; experiment: Western blot for active caspase 3 (Example III); type: cell-based, human; details: LY294002 10 μM, carboplatin 50 μg/ml
# Method: The OCC1-SEAP-12 cells were grown to 80% confluence. Cultures were incubated in DMEM plus 0.1% bovine serum albumin (BSA) and 0.1% BCS to which either vehicle control, carboplatin (0-50 μg/ml), LY294002 (0-20 μM) or combinations of these treatments. Following 24, 48 or 72 hr cells were lysed with sample buffer (62.5 mM Tris-HCl, pH 6.8, 2% SDS, 5% glycerol, […], 0.5% β-mercaptoethanol). Total cell lysates were subjected to SDS polyacrylamide gel electrophoresis 9 page) and transferred to PVDF membranes (Millipore, Bedford, Mass.). Membranes were immunoblotted with antibodies to both the phosphorylated and non-phosphorylated forms of […] (Cell Signaling Technology, Beverly, Mass.), or alternatively, with antibodies to cleaved and full length caspase-3 (Cell Signaling Technology, Beverly, Mass.).
# [4] = tested on: caspase-3; experiment: Western blot for active caspase-3 (Example II); type: cell-based, human; details: carboplatin alone
# [5] = tested on: OCC1-SEAP intraperitoneal tumors; experiment: Nude mouse intraperitoneal OCC1-SEAP tumor model, plasma SEAP (Example I); type: in vivo, athymic nude mice; details: established tumors; carboplatin 60 mg/kg three times over 4 days
# Method: Athymic nude mice (Nu/Nu; Charles River Laboratories, Wilmington, Mass.) weighing about 25 g were used for in vivo studies.
# Three mice were injected intraperitoneally with 1×10^7 OCC1-SEAP-12 cells. The experimental treatments began after 1 week. […] Alternatively, four mice with well-developed tumors (2-4 weeks after injection) were treated with a high dose of carboplatin (60 mg/kg) three times over a period of 4 days. After death all visible intraperitoneal tumors were dissected out and weighed.
# Blood samples were collected from saphenous vein lancings three times per week into heparinized capillary tubes. The capillary tubes were centrifuged and the plasma samples were frozen at −20° C. until the time of SEAP assay. Blood samples were taken for SEAP assay from the mice within 24 hours of death 2-3 weeks after intraperitoneal injection of OCC1-SEAP cells.
# (§1) Blood plasma and cell culture medium samples were assayed for SEAP activity using the Great EscAPe SEAP fluorescence detection kit (Clontech Laboratories, Palo Alto, Calif.). SEAP is secreted at a constant rate by transfected tumor cells and distributed throughout the body or into the culture medium. SEAP is heat stable, so any endogenous alkaline phosphatase activity in blood plasma is destroyed by heat treatment of the samples (65° C. for 30 minutes) during the assay. The SEAP enzyme in each sample acts on the substrate 4-methylumbelliferyl phosphate during a 1 hour incubation at room temperature to produce a fluorescent product with excitation and emission peaks at 360 and 449 nm, respectively. A fluorimeter is then used to measure SEAP activity. The intra-assay and inter-assay coefficients of variation were 2.5% and 18.8%, respectively. Blood plasma samples were diluted 1:100 prior to the assay to bring values within the linear range of the standard curve.
# [6] = tested on: OCC1-SEAP cells; experiment: OCC1-SEAP cell response to carboplatin in vitro (DNA per well, SEAP in medium); type: cell-based, human
# Method: OCC1-SEAP-12 cells were grown in Ham's F-12 medium (Gibco) plus 10% calf serum then collected into Hank's balanced salt solution and counted for injection into nude mice. For in vitro assays OCC1-SEAP-12 cells were plated at sequential twofold dilutions and allowed to adhere to culture wells and incubated for 24 hours. Alternatively, OCC1-SEAP-12 cells were grown to 80% confluence in Ham's F-12 medium plus 10% calf serum. Cells were starved for 48 hours in DMEM plus 0.1% BSA and 0.1% calf serum. Experimental treatments were applied for 2 days in DMEM plus 0.1% BSA and 0.1% calf serum. At the end of the treatment period a sample of culture medium was taken for SEAP level determination. DNA assays were performed by discarding the remaining culture medium from over the cells, adding buffer solution, sonicating the cells in each well, and measuring the fluorescence of cell solution into which SYBR Green I fluorescent dye (Molecular Probes, Eugene, Oreg.) had been incorporated as previously described (Parrott and Skinner 1999).
# as §1
compound,measurement,setting,value
N.N.O=C([O-])C1(C(=O)[O-])CCC1.[Pt+2] [carboplatin],DNA laddering,[1],observed
same,DNA laddering,[2],evident
same,time at which active 17 kDa caspase 3 appears,[3],48 h
same,time until caspase-3 is activated post-treatment,[4],48 h
same,tumor burden by plasma SEAP levels,[5],transiently decreased the tumor burden
same,normalized SEAP production (SEAP per amount of DNA per well),[6]; 60 micro g/ml carboplatin for 48 hours vs control,did not change
same,SEAP levels in culture medium,"[6]; 60 micro g/ml carboplatin for 48 hours, control cells 11.1",3.9 ng per 25 micro liter
same,DNA levels,"[6]; 60 micro g/ml carboplatin for 48 hours, control cells 58 micro g/ml",35 micro g/ml
